According to the supplement of paper PMC4862054:
Several values for one entry are separate records, joined by “and”; a condition that tells them apart may be missing. Equal entries are not always repeated.

Key:
Conditions in all cases: incubation time: 72 h
BT-474 [1] = experiment: normalised viability (% of control), CellTiter-Blue; higher = more viable cells (about 100 = DMSO control)
In short: (§1)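 The reported quantity is normalised viability at a single listed concentration of the series. Compound in 5 µl medium was pre-dispensed into 384-well plates and 20 µl of breast cancer cell suspension was added for 72 h. A 2 h, 37 °C CellTiter-Blue step (2.5 µl) preceded fluorescence reading at 560/590 nm, and plates were normalised to vehicle (100) and a positive kill control (0).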

BT-549 [2] = experiment: as above
In short: as §1

CAL-148 = experiment: as above
In short: as §1

CAL-85-1 [3] = experiment: as above
In short: as §1

DU-4475 [4] = experiment: as above
In short: as §1

HCC1143 = experiment: as above
In short: as §1

HCC1599 [5] = experiment: as above
In short: as §1

HCC1937 [6] = experiment: as above
In short: as §1

HDQ-P1 = experiment: as above
In short: as §1

Hs578T [7] = experiment: as above
In short: as §1

MDA-MB-231 [8] = experiment: as above
In short: as §1

MDA-MB-453 [9] = experiment: as above
In short: as §1

MDA-MB-468 [10] = experiment: as above
In short: as §1

SK-BR-3 = experiment: as above
In short: as §1

BT-549 [11] = experiment: drug sensitivity score (DSS), CellTox Green (DSS (AUC-based score)); higher = stronger drug effect (viability inhibition or cytotoxicity); extreme values may be limits of the assay
In short: (§2)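 Using 20 µl of cell suspension per well, breast cancer cell lines were seeded into 384-well plates pre-loaded with compound at 5 concentrations in 10-fold steps across a compound-specific 10,000-fold range. Incubation lasted 72 h, after which CellTox Green fluorescence at 485/520 nm and then CellTiter-Glo luminescence, following 10 min at room temperature, were recorded. Each plate was normalised to 0.1 % DMSO and a positive kill control before the drug sensitivity score was derived from the area under the fitted dose-response curve.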

CAL-120 = experiment: as above
In short: as §2

CAL-51 = experiment: as above
In short: as §2

CAL-85-1 [12] = experiment: as above
In short: as §2

DU-4475 [13] = experiment: as above
In short: as §2

HCC1599 [14] = experiment: as above
In short: as §2

HCC1937 [15] = experiment: as above
In short: as §2

Hs578T [16] = experiment: as above
In short: as §2

MCF-10A = experiment: as above
In short: as §2

MDA-MB-231 [17] = experiment: as above
In short: as §2

MDA-MB-436 = experiment: as above
In short: as §2

MDA-MB-453 [18] = experiment: as above
In short: as §2

MDA-MB-468 [19] = experiment: as above
In short: as §2

BT-474 [20] = experiment: as above
In short: as §2

Row | Compound | normalised viability (BT-474 [1]; 100 nM) | normalised viability (BT-549 [2]; 100 nM) [%] | normalised viability (CAL-148; 10 nM) | normalised viability (CAL-85-1 [3]; 10 nM) | normalised viability (DU-4475 [4]; 10 nM) | normalised viability (HCC1143; 100 nM) | normalised viability (HCC1599 [5]; 100 nM) | drug sensitivity score (BT-549 [11]) | drug sensitivity score (CAL-120) | drug sensitivity score (CAL-51) | drug sensitivity score (CAL-85-1 [12]) | drug sensitivity score (DU-4475 [13]) | drug sensitivity score (HCC1599 [14]) | drug sensitivity score (HCC1937 [15]) | drug sensitivity score (Hs578T [16]) | drug sensitivity score (MCF-10A) | drug sensitivity score (MDA-MB-231 [17]) | drug sensitivity score (MDA-MB-436) | drug sensitivity score (MDA-MB-453 [18]) | drug sensitivity score (MDA-MB-468 [19]) | also measured
1 | COc1cc2ncnc(Nc3ccc(F)c(Cl)c3)c2cc1OCCCN1CCOCC1 [Gefitinib] | 92.3% and 101% | 108 | 84.8% and 87.6% | 94.2% and 95.5% | 108% and 93.9% | 63% and 86.8% | 102% and 113% | 0 | 0 | 0 | 4.48 | 0 | 0 | 0 | 0 | 0 | 0.542 | 0 | 0 | 0 | normalised viability (HCC1937 [6]; 100 nM): 102% and 92%; normalised viability (HDQ-P1; 10 nM): 103% and 100%; normalised viability (Hs578T [7]; 100 nM): 86.3% and 99.7%; normalised viability (MDA-MB-231 [8]; 100 nM): 93.9% and 97%; normalised viability (MDA-MB-453 [9]; 10 nM): 96.9%; normalised viability (MDA-MB-468 [10]; 100 nM): 81.7% and 89.3%; normalised viability (SK-BR-3; 100 nM): 80.9% and 72.1%
2 | CO[C@H]1C[C@@H]2CC[C@@H](C)[C@@](O)(O2)C(=O)C(=O)N2CCCC[C@H]2C(=O)O[C@H]([C@H](C)C[C@@H]2CC[C@@H](OP(C)(C)=O)[C@H](OC)C2)CC(=O)[C@H](C)/C=C(\C)[C@@H](O)[C@@H](OC)C(=O)[C@H](C)C[C@H](C)/C=C/C=C/C=C/1C [Ridaforolimus] |  |  |  |  |  |  |  | 0 | 0 | 0 | 0 | 0 | 0 | 0 | 0 | 0 | 0.968 | 4.09 | 0 | 0 | normalised viability (BT-474 [1]; 10 nM): 60.7%; normalised viability (BT-549 [2]; 10 nM): 62.4%; normalised viability (CAL-148; 1 nM): 60.1%; normalised viability (CAL-85-1 [3]; 1 nM): 67.4%; normalised viability (DU-4475 [4]; 1 nM): 78.2%; normalised viability (HCC1143; 10 nM): 56.4%; normalised viability (HCC1599 [5]; 10 nM): 91.8%; normalised viability (HCC1937 [6]; 10 nM): 58.9%; normalised viability (HDQ-P1; 1 nM): 110%; normalised viability (Hs578T [7]; 10 nM): 50.4%; normalised viability (MDA-MB-231 [8]; 10 nM): 71.9%; normalised viability (MDA-MB-453 [9]; 1 nM): 44.5%; normalised viability (MDA-MB-468 [10]; 10 nM): 61.2%; normalised viability (SK-BR-3; 10 nM): 48.4%; drug sensitivity score (BT-474 [20]): 0
3 | COc1cc2/c(=N/c3ccc(Br)cc3F)nc[nH]c2cc1OCC1CCN(C)CC1 [Vandetanib] | 90.6% | 89 | 92% | 104% | 110% | 111% | 96.3% | 0 | 0 | 0 | 0 | 0 | 0 | 0 | 0 | 0 | 3.15 | 0 | 0 | 0 | normalised viability (HCC1937 [6]; 100 nM): 81.8%; normalised viability (HDQ-P1; 10 nM): 76.7%; normalised viability (Hs578T [7]; 100 nM): 67.8%; normalised viability (MDA-MB-231 [8]; 100 nM): 94%; normalised viability (MDA-MB-453 [9]; 10 nM): 104%; normalised viability (MDA-MB-468 [10]; 100 nM): 93.8%; normalised viability (SK-BR-3; 100 nM): 63.8%; drug sensitivity score (BT-474 [20]): 0
